These results are taken from ChEMBL document CHEMBL4699519, “Natural and Semisynthetic Chalcones as Dual FLT3 and Microtubule Polymerization Inhibitors” (J Nat Prod, 2020).

Experiment [1] deals with MV4-11. The experiment in a line: Antiproliferative activity against human MV4-11 cells assessed as reduction in cell viability at 25 uM after 72 hrs by MTS assay relative to control. It is filed as functional.
In experiment [2] the test system is MV4-11. The experiment in a line: Antiproliferative activity against human MV4-11 cells assessed as reduction in cell viability at 50 uM after 72 hrs by MTS assay relative to control. It is filed as functional.
Experiment [3] deals with K562. The experiment in a line: Antiproliferative activity against human K562 cells assessed as reduction in cell viability at 25 uM after 72 hrs by MTS assay relative to control. In kind it is functional.
Experiment [4] deals with K562. The experiment in a line: Antiproliferative activity against human K562 cells assessed as reduction in cell viability at 50 uM after 72 hrs by MTS assay relative to control. It is filed as functional.
Experiment [5] concerns MOLM-13. The experiment is described as follows: Antiproliferative activity against human MOLM-13 cells assessed as reduction in cell viability after 72 hrs by MTS assay. In kind it is functional.
The subject of experiment [6] is MV4-11. The experiment in a line: Antiproliferative activity against human MV4-11 cells assessed as reduction in cell viability after 72 hrs by MTS assay. In kind it is functional.
Experiment [7] concerns THP-1. The experiment is described as follows: Antiproliferative activity against human THP-1 cells assessed as reduction in cell viability after 72 hrs by MTS assay. It is filed as functional.
The nature of experiment [8]: Selectivity ratio of GI50 for antiproliferative activity against human THP-1 cells to GI50 antiproliferative activity against human MV4-11 cells. It is filed as functional.
Experiment [9] is described as follows: Selectivity ratio of GI50 for antiproliferative activity against human THP-1 cells to GI50 antiproliferative activity against human MOLM-13 cells. In kind it is functional.
Experiment [10] has as its system Receptor-type tyrosine-protein kinase FLT3 (Homo sapiens), P36888 [UNDEFINED MUTATION]. The experiment in a line: Inhibition of FLT3 ITD mutant in human MV4-11 cells assessed as inhibition of ERK phosphorylation at 1.56 to 50 uM incubated for 2 hrs by immunoblotting analysis. In kind it is cell-based. Conditions: dose microM 1.56-50, time 2.0 hrs.
Experiment [11] has the same test system. The experiment is described as follows: Inhibition of FLT3 ITD mutant in human MV4-11 cells assessed as inhibition of STAT5 phosphorylation at 1.56 to 50 uM incubated for 2 hrs by immunoblotting analysis. In kind it is cell-based. Conditions: dose microM 1.56-50, time 2.0 hrs.
Experiment [12] addresses T1, Receptor-type tyrosine-protein kinase FLT3 (Homo sapiens, UniProt P36888).
T1 sequence (P36888 whole entry): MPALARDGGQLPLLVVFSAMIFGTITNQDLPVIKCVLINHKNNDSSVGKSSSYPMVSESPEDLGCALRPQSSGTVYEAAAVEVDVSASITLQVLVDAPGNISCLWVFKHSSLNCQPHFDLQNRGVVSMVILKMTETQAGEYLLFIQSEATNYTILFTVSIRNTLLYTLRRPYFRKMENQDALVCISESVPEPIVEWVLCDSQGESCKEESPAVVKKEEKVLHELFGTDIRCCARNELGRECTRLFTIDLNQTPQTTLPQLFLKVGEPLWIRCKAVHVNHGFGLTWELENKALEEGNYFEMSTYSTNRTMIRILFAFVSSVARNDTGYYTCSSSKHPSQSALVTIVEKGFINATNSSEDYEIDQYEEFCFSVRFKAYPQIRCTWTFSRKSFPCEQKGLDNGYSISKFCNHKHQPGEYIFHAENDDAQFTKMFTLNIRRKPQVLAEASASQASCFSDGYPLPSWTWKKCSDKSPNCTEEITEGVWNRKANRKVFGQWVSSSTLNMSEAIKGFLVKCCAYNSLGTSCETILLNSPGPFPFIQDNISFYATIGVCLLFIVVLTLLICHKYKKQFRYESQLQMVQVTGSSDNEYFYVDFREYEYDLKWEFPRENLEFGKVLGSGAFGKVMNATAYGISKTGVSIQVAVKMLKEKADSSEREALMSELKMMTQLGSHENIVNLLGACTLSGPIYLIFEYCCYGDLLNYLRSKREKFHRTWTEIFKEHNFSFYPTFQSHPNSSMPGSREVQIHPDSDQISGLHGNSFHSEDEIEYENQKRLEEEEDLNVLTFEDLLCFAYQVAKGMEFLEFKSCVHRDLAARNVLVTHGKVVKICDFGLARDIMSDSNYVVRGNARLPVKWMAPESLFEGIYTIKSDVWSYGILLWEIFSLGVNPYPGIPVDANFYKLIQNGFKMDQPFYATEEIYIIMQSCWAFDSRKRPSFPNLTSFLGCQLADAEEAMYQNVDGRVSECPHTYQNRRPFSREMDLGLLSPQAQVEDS
The experiment is described as follows: Inhibition of FLT3 (unknown origin) in presence of ATP.

For experiment [13], the target named is T2, Tubulin (Homo sapiens) (UniProt P68371+Q9H4B7+P0DPH7+P68366+Q13509+Q71U36+P04350+Q3ZCM7+P07437+P68363+Q9BQE3+Q6PEY2+Q13885+Q9BVA1+Q9BUF5). The experiment is described as follows: Inhibition of microtubule polymerization in human HCT-116 cells assessed as increase in histone H3 phosphorylation at S10 residue at 25 uM after 8 hrs by DOT blot analysis. It is filed as cell-based.

In experiment [14] the target is T2, Tubulin (Homo sapiens). The experiment is described as follows: Inhibition of microtubule polymerization in human HCT-116 cells assessed as increase in histone H3 phosphorylation at S10 residue at 0.78 uM after 8 hrs by Western blot analysis. In kind it is cell-based.
Experiment [15] addresses T2, Tubulin (Homo sapiens). The experiment in a line: Inhibition of microtubule polymerization in human MV4-11 cells assessed as increase in histone H3 phosphorylation at S10 residue at 0.78 uM after 8 hrs by Western blot analysis. In kind it is cell-based.
Experiment [16] concerns the target T2, Tubulin (Homo sapiens). The experiment in a line: Inhibition of microtubule polymerization in human MV4-11 cells assessed as increase in histone H3 phosphorylation at S10 residue at 0.35 to 2.5 uM after 24 hrs by propidium iodide staining based flow cytometric analysis. In kind it is cell-based. Conditions: dose microM 0.35-2.5, time 24.0 hrs.
Experiment [17] has as its target T2, Tubulin (Homo sapiens). The experiment is described as follows: Inhibition of microtubule repolymerization in human A549 cells at 5 uM preincubated for 30 mins followed by 10 min incubation at ice cold methanol by DAPI staining based confocal microscopic method relative to control. The conditions noted are these: time 40.0 min. It is filed as cell-based.
For experiment [18], the target named is T2, Tubulin (Homo sapiens). The experiment is described as follows: Inhibition of tubulin polymerization (unknown origin) measured every 30 sec for 1 hrs in presence of GTP by turbidimetric analysis. Conditions: dose microM 5-25, time 1.0 hrs. It is filed as protein-complex assay.
The target in experiment [19] is T2, Tubulin (Homo sapiens). The experiment is described as follows: Displacement of colchicine in tubulin (unknown origin) at 12.5 uM after 1 hr by fluorescence assay relative to control. In kind it is protein-complex assay.
In experiment [20] the target is T2, Tubulin (Homo sapiens). The experiment in a line: Displacement of colchicine from tubulin (unknown origin) at 25 uM after 1 hr by fluorescence assay relative to control. It is filed as protein-complex assay.
Experiment [21] deals with T2, Tubulin (Homo sapiens). The experiment in a line: Displacement of colchicine from tubulin (unknown origin) at 50 uM after 1 hr by fluorescence assay relative to control. It is filed as protein-complex assay.
In experiment [22] the test system is MV4-11. The experiment in a line: Induction of apoptosis in human MV4-11 cells assessed as increase in cleaved caspase-3 level at 0.313 to 5 uM after 24 hrs by Western blot analysis. It is filed as functional, cell-based. The conditions noted are these: dose microM 0.313-5, time 24.0 hrs.
Experiment [23] has as its system MV4-11. The experiment in a line: Induction of apoptosis in human MV4-11 cells assessed as increase in cleaved PARP level at 0.313 to 5 uM after 24 hrs by Western blot analysis. It is filed as functional, cell-based. The conditions noted are these: dose microM 0.313-5, time 24.0 hrs.
Experiment [24] deals with MV4-11. The experiment in a line: Induction of apoptosis in human MV4-11 cells at 0.31 to 2.5 uM after 24 to 48 hrs by Annexin V/prpidium iodide staining based flow cytometric analysis. It is filed as functional, cell-based. The conditions noted are these: dose microM 0.31-2.5, time hrs 24-48.
The subject of experiment [25] is MOLM-13. The experiment in a line: Antiproliferative activity against human MOLM-13 cells harboring D835Y mutant assessed as reduction in cell viability after 72 hrs by MTS assay. In kind it is functional.
A short description of experiment [26]: Resistant index, ratio of GI50 for antiproliferative activity against human MOLM-13 cells harboring D835Y mutant to antiproliferative activity against human MOLM-13 cells. It is filed as functional.
The test system of experiment [27] is Receptor-type tyrosine-protein kinase FLT3 (Homo sapiens), P36888 [UNDEFINED MUTATION]. The experiment in a line: Inhibition of FLT3 ITD mutant in human MV4-11 cells assessed as inhibition of ERK phosphorylation at 25 to 50 uM incubated for 2 hrs by immunoblotting analysis. Conditions: dose microM 25-50, time 2.0 hrs. In kind it is cell-based.
For experiment [28], the target named is Receptor-type tyrosine-protein kinase FLT3 (Homo sapiens) (UniProt P36888). The experiment in a line: Inhibition of FLT3 (unknown origin) at 100 uM in presence of ATP relative to control.
In experiment [29] the test system is Receptor-type tyrosine-protein kinase FLT3 (Homo sapiens), P36888 [UNDEFINED MUTATION]. The experiment in a line: Inhibition of FLT3 ITD mutant in human MV4-11 cells assessed as inhibition of STAT5 phosphorylation at 25 to 50 uM incubated for 2 hrs by immunoblotting analysis. It is filed as cell-based. Conditions: dose microM 25-50, time 2.0 hrs.

Each structure is given as a SMILES string. Calls of active or inactive are those of the source. The rule behind the calls is not given here.

Turning to `O=C(/C=C/c1ccccc1)c1ccc(OCc2ccccc2)cc1`, the result in [1], in experiment [2], in [3] and in [4] was inactive.

With `O=C(/C=C/c1ccc(OCc2ccccc2)cc1)c1ccccc1`, the result in [1], in experiment [2], in experiment [3] and in [4] was inactive.

Take `COc1ccc(/C=C/C(=O)c2ccc3c(c2O)C=CC(C)(C)O3)cc1`: the outcome in experiment [1], in experiment [2], in experiment [3] and in experiment [4] was inactive.

Take `O=C(/C=C/c1ccc(Cl)cc1)c1ccc(OCc2ccccc2)cc1`: the outcome in experiment [1], in [2], in [3] and in [4] was inactive.

On to `C=CCOc1cc(OC)ccc1C(=O)/C=C/c1ccc(OC)cc1`, for which the 50% growth inhibitory concentration (GI50) in experiment [5] worked out at 0.2 µM; in [6], 0.24 µM; in [7], 5.4 µM; in [25] it was 0.22 µM. The Activity in [1], in [2], in experiment [3] and in experiment [4] was above 95% throughout. Further, the RatioGI50 in experiment [8] was above 2; in experiment [9], above 2; in [26] it was 1. In addition, the inhibition entry in experiment [10], in [11], in experiment [13], in experiment [14], in [15] and in [16] was “Active” in each case. Besides, the inhibition result in experiment [18] is “Active”. Besides, in [12], the IC50 is 5.7 µM. The inhibition was 100% in [17], 75% in [19], 80% in experiment [20] and 87% in experiment [21]. The outcome in experiment [22], in experiment [23] and in experiment [24] was Active.

As for `COc1cc2c(N3CCN(C(=O)Nc4ccc(OC(C)C)cc4)CC3)ncnc2cc1OCCCN1CCCCC1` [TANDUTINIB], the GI50 came to 0.052 µM in experiment [5] and 1.9 µM in experiment [25]. The RatioGI50 in [26] is recorded as 35.8.

As to `O=C(/C=C/c1ccccc1)c1ccccc1O` [2'-HYDROXYCHALCONE], the GI50 in experiment [5], in experiment [6] and in experiment [7] was above 10 µM each time. The outcome in [1], in experiment [2], in [3] and in [4] was Active. Besides, the inhibition entry in [27] was “Active”. Further, the inhibition in experiment [28] is 39.5%.

Regarding `COC(=O)Nc1nc2cc(C(=O)c3cccs3)ccc2[nH]1`, in [21], the inhibition came to 93.5%.

Turning to `O=C(/C=C/c1ccccc1Cl)c1ccc(OCc2ccccc2)cc1`, the result in [1], in [2], in [3] and in [4] was inactive.

On to `COc1ccc(/C=C/C(=O)c2ccc(OC)cc2O)cc1`, for which the GI50 is above 10 µM in experiment [5], above 10 µM in experiment [6] and above 100 µM in experiment [7]. Moreover, the result in [1], in experiment [2], in [3] and in experiment [4] was Active. In experiment [29], the inhibition entry is “Active”.

Consider `COc1ccc(/C=C/C(=O)c2ccc(OCc3ccccc3)cc2)c(OC)c1OC`, for which the result in experiment [1], in [2], in experiment [3] and in experiment [4] was inactive.

As for `O=C(/C=C/c1ccc(F)cc1)c1ccc(OCc2ccccc2)cc1`, the result in experiment [1], in experiment [2], in experiment [3] and in experiment [4] was inactive.

With `COc1cccc(/C=C/C(=O)c2ccc(OCc3ccccc3)cc2)c1`, the result in [1], in experiment [2], in [3] and in [4] was inactive.

`COc1ccc(C(=O)/C=C/c2ccc(OC)c(OC)c2)c(O)c1`: the results for the GI50 in [5], in [6] and in experiment [7] were 10 µM, above 10 µM and above 100 µM, respectively. Further, the result in experiment [1], in experiment [2], in [3] and in experiment [4] was Active. The inhibition result in [27] and in experiment [29] was “Active” each time. Further, the half-maximal inhibitory concentration (IC50) in experiment [12] worked out at 13.8 µM.
